Test results taken from US20030166005A1, “Test system for determining the activity of cyclo-nucleotide-dependent protein kinases and vasp phosphatases” (priority 2000, published 2003).

Key:
cGK [1] = target: T1, cGK (Homo sapiens, UniProt Q13976); experiment: biochemical
T1 sequence (Q13976 1-671): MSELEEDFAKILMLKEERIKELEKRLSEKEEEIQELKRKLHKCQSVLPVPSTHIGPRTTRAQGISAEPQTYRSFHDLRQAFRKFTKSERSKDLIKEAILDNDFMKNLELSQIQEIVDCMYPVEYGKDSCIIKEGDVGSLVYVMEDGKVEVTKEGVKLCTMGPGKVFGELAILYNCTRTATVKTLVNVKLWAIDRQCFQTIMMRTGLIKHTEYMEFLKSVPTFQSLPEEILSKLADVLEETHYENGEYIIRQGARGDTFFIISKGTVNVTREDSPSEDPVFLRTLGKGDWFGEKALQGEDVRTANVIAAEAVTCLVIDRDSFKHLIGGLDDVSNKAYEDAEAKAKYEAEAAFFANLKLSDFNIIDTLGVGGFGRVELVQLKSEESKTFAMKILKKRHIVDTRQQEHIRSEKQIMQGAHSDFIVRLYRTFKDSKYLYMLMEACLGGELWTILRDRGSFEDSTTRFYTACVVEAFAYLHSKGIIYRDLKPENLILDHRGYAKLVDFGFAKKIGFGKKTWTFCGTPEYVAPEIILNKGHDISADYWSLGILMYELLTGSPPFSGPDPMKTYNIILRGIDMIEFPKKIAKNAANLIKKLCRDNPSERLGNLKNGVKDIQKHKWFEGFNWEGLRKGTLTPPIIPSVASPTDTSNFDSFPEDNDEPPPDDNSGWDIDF
Protocol: Instead of carrying out a kinase reaction for the purpose of establishing and optimizing the detection system, a synthetic phosphopeptide (phosphorylated version of the VASP substrate peptide) was used as the “reaction product” and was quantified using a detection mix. In order to ascertain the linear measurement range, different mixtures of unphosphorylated peptide and phosphopeptide were prepared. When so doing, the total concentration of peptide was kept constant at 500 nmol/l. 50 μl of these mixtures were added to the wells of a 96-well microtest plate and in each case treated with 200 μl of a detection mix which contained the following reagents diluted in PBS:
The time-resolved FRET signal, when exciting the europium fluorescence at 340 nm and measuring the emission of the APC fluorescence at 660 nm, was measured, after incubating at 20° C. for 1 hour, using a PerkinElmer Wallac fluorescence-measuring instrument (Victor^2).
After the tubes had been preincubated at 30° C. for 5 minutes, the kinase reaction was started with 50 μmol of ATP/l, with subsequent incubation being at 30° C. All the above-mentioned concentrations are to be understood as meaning final concentrations in a volume of 500 μl. […] The phosphorylated substrate peptide was detected, as described in Example 1, in the wells of a 384-well microtest plate. […]

cGK [2] = target: T1, cGK; experiment: Influence of DMSO on the enzyme activity in the test system; assay type: biochemical; details: for Enzyme activity in cps/min: incubation period 10 min
Protocol: Most substances which are tested in an HTS are preferably dissolved in DMSO. However, many enzymes or test systems are very sensitive to DMSO. In order to determine the influence of DMSO on the test system according to the invention, phosphorylation kinetics, as described in Example 2 (cf. FIG. 2), were carried out in the presence of 0, 5, 10, 15 and 20% DMSO.

SMILES	EC50 (cGK [1]) [nM]	Enzyme activity in cps/min (cGK [2]; 5 percent by volume of DMSO) [cps/min]	Enzyme activity in cps/min (cGK [2]; 10 percent by volume of DMSO) [cps/min]	Enzyme activity in cps/min (cGK [2]; 15 percent by volume of DMSO) [cps/min]	Enzyme activity in cps/min (cGK [2]; 20 percent by volume of DMSO) [cps/min]	influence on the reaction (cGK [2]; up to 20 percent by volume of DMSO)
Nc1nc(=O)c2nc(Sc3ccc(Cl)cc3)n([C@@H]3O[C@@H]4COP(=O)(O)O[C@H]4[C@H]3O)c2[nH]1 [8-pCPT-cGMP]	100	–	–	–	–	–
C[S+](C)[O-] [DMSO, dimethyl sulfoxide]	–	2282	2253	2218	1988	no significant influence
